Common to all, as to type: cell-based, human
The subject of experiment [1] is PC-3 cells. Put plainly: Spectroscopic imaging and Raman spectral analysis of lipid droplets in PC-3 cells. The source says:
(§1) A broad spectrum of human prostate epithelial cells has been examined. […] Loss of the tumor suppressor PTEN has been widely observed in both localized and metastatic prostate cancer and correlated with high Gleason grade. With loss of PTEN, PI3K signaling is hyper-activated, which, in turn, leads to AKT activation. […] AKT mediates the phosphorylation and activation of mTOR complex 1 (mTORC1) which plays critical roles in the regulation of protein and lipid biosynthesis. To determine whether the PI3K/AKT/mTOR pathway regulates cholesteryl ester accumulation, both types of cholesteryl ester rich cell lines, PC-3 and high passage LNCaP (LNCaP-HP), were treated with LY294002 (PI3K inhibitor), MK2206 (AKT inhibitor), and Rapamycin (mTOR inhibitor), respectively.
Because cholesterol can be either de novo synthesized via the mevalonate pathway or taken up from exogenous lipoproteins, the source of cholesterol used for cholesteryl ester accumulation was investigated. PC-3 cell were first treated with Simvastatin, an inhibitor of 3-hydroxy-3-methylglutaryl coenzyme A HMG-CoA reductase, the rate-limiting enzyme of the mevalonate pathway. […] In contrast, after treating cells with lipoprotein-deficient serum (LPDS), lipid droplets nearly disappeared in cholesteryl ester rich PC-3 and LNCaP-HP cells (FIG. 29, Panel A), but remained the same amount in cholesteryl ester poor cells including LNCaP-LP, DU145, and C4-2. Re-addition of low-density lipoprotein (LDL) into the LPDS medium restored lipid droplets and cholesteryl ester in both PC-3 and LNCaP-HP cells (FIG. 29, Panel B).
(§2) It is well known that LDL enters a cell via LDL receptor (LDLr) and traffics to the late endosome and lysosome where it is hydrolyzed to free fatty acids and free cholesterol. The excess free cholesterol together with the fatty acyl CoA substrate is then converted to cholesteryl ester by Acyl coenzyme A: cholesterol acyltransferase (ACAT) and stored in lipid droplets. Thus, cells were separately treated with Avasimibe and Sandoz 58-035, two different ACAT inhibitors. […] The significant reduction of cholesteryl ester accumulation upon Avasimibe treatment was further confirmed by an independent biochemical assay of cell lysates.

The subject of experiment [2] is LNCaP-HP cells. The experiment can be described thus: Spectroscopic (SRL) imaging and Raman spectral analysis of lipid droplets in LNCaP-HP cells. How it is done:
The LNCaP-HP cells were treated with an ACAT inhibitor, avasimibe (structure shown in FIG. 13, Panel D), at 10 μM for 2 days.
as §1, §2

In experiment [3] the test system is PC-3 cells. The experiment can be described thus: Cell growth / viable cell number of PC-3 cells. The settings on record: added LDL or AA (FIG. 46). How it is done: Because cholesteryl ester accumulation was found in PCa but not in normal prostate, how cell viability could be affected by regulating cholesteryl ester levels with the ACAT inhibitor Avasimibe was evaluated. […] The inhibitory effect of Avasimibe on the growth of PC-3 and LNCaP-HP cells was considerably greater than that in cholesteryl ester poor cancer cells including LNCaP-LP, DU145, and C4-2.

For `NC1(c2ccc(-c3nc4ccn5c(=O)[nH]nc5c4cc3-c3ccccc3)cc2)CCC1` [MK2206], in experiment [1], the “autofluorescent granules indicative of autophagy” value is on record as “induced massive accumulation of autofluorescent granules” and the lipid droplet amount result is on record as “radically removed lipid droplets”. In addition, in experiment [2], the “autofluorescent granules indicative of autophagy” value is reported as “induced massive accumulation of autofluorescent granules” and the lipid droplet amount result is given as “radically removed lipid droplets”.

As to `CCCCC/C=C\C/C=C\C/C=C\C/C=C\CCCC(=O)O` [AA, arachidonic acid], the “growth of PC-3 cells” value in experiment [3] was “promoted the growth of PC-3 cells in a dose-dependent manner”.

As for `CCCCCCCCCC[Si](C)(C)CCC(=O)NC(Cc1ccc(C)cc1)c1ccccc1` (stereo not drawn) [Sandoz 58-035], the lipid droplet amount entry in experiment [1] and in experiment [2] was “remaining unchanged” in each case. The cholesteryl ester accumulation entry in experiment [1] (ACAT inhibitor treatment) and in experiment [2] (ACAT inhibitor treatment) was “effectively suppressed cholesteryl ester accumulation” in each case.

(Values after patent US9164084B2, “Methods for determining aggressiveness of a cancer and treatment thereof” (Purdue Research Foundation, priority 2012, dated 2015).)
